Test results as given in US6953800B2, “Use of selective antagonists of the α1B-adrenergic receptor for improvement of sexual dysfunction” (Recordati S.A. Chemical, priority 1999, dated 2005).
Structures can show the parent of a compound that is named as a salt.

Experiments:
anaesthetised dogs = experiment: Intracavernous and blood pressure recording in dogs
Method: Male beagle dogs were anaesthetised with pentobarbital sodium (i.v. Nembutal, 35 mg/kg for induction and 4 mg/kg/h for maintenance) and intubated with an endotracheal cuffed tube to facilitate free ventilation. A collateral of the left femoral vein was cannulated with a PE catheter for infusion of the anaesthetic. Systemic BP was monitored via a Mikro-tip 6F (Millar Instruments) pressure transducer introduced into the aortic arch through the right common carotid artery. ICP was measured by means of a 20-gauge needle placed into the left or right corpus cavernosum and the same needle was used for intracavernous injection of the drugs. The needle was attached to a catheter filled with heparinized saline (25 IU/mL). […] The compounds to be tested were injected intracavernously in a volume of 0.5 ml and, after each injection, the needle was flushed with 0.5 ml of saline. The vehicles for compound dissolution were tested before the first dose of each drug. The compounds were administered in a cumulative way, with a 30-minute interval between doses. ICP (mmHg) was measured at the peak effect after the administration of the compounds. The duration of tumescence (DT, min) was measured from the beginning of the rise of ICP over its basal value up to the return to baseline. The systolic blood pressure and diastolic blood pressure (mmHg) were measured at the peak effect after the administration of compounds, in order to evaluate the effects of the compounds on BP independently from the effects on ICP. Moreover, the systolic blood pressure was measured at the time of maximal ICP value after intracavernous injection, to evaluate the ICP/BP ratios. […] The data were reported as mean ±s.e. of the mean, or percent variation (±s.e.) of the basal values.

human α1b-adrenoceptor = biological target: T1, human α1b-adrenoceptor (Homo sapiens, UniProt P35368); experiment: [3H]Prazosin binding, cloned human α1b-adrenoceptor in CHO cell membranes
T1 construct: expressed in transfected cells
T1 sequence (P35368 1-520): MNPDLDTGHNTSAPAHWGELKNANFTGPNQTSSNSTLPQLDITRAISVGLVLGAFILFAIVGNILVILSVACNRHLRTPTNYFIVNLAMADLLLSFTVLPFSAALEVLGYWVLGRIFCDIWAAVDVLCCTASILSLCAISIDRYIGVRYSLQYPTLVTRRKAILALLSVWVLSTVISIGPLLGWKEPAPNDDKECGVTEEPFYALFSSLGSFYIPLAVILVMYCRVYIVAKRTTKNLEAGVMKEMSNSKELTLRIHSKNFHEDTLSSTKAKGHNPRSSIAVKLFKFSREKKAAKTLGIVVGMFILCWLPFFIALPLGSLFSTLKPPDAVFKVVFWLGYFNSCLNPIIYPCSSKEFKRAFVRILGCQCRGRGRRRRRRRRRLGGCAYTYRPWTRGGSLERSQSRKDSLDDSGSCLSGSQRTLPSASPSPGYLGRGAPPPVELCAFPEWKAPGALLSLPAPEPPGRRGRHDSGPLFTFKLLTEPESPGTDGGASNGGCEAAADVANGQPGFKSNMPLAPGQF
Method: (§1) Binding to cloned human α1-adrenoceptor subtypes was performed in membranes from CHO cells (Chinese hamster ovary cells) transfected by electroporation with DNA expressing the gene encoding each α1-adrenoceptor subtype. […] The incubation was stopped by addition of ice-cold Tris buffer and rapid filtration through 0.2% polyethyleneimine-pretreated Whatman GF/B or Schleicher & Schuell GF52 filters.
(§2) Data are expressed as mean Ki. All patents and other references cited herein are incorporated by reference in their entirety.

human α1a-adrenoceptor = biological target: T2, human α1a-adrenoceptor (Homo sapiens, UniProt P35348); experiment: biochemical
T2 sequence (P35348 1-466): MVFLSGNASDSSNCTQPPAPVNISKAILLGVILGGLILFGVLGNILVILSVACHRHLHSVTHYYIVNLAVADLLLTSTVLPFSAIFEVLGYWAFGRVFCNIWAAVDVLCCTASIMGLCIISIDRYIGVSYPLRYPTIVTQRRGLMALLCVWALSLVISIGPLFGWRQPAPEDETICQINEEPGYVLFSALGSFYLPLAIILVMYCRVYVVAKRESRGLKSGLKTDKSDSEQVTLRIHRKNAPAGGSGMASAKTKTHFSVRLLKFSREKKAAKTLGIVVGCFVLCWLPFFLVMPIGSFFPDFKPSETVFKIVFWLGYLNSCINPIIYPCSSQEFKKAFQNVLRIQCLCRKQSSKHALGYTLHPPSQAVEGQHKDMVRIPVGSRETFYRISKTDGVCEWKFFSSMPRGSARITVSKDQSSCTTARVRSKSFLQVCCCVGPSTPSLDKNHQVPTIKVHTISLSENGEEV

human α1d-adrenoceptor = biological target: T3, human α1d-adrenoceptor (Homo sapiens, UniProt P25100); experiment: [3H]Prazosin binding, cloned human α1d-adrenoceptor in CHO cell membranes; conditions: read-out: Affinity (Ki) α1d, human cloned receptors
T3 construct: expressed in transfected cells
T3 sequence (P25100 1-572): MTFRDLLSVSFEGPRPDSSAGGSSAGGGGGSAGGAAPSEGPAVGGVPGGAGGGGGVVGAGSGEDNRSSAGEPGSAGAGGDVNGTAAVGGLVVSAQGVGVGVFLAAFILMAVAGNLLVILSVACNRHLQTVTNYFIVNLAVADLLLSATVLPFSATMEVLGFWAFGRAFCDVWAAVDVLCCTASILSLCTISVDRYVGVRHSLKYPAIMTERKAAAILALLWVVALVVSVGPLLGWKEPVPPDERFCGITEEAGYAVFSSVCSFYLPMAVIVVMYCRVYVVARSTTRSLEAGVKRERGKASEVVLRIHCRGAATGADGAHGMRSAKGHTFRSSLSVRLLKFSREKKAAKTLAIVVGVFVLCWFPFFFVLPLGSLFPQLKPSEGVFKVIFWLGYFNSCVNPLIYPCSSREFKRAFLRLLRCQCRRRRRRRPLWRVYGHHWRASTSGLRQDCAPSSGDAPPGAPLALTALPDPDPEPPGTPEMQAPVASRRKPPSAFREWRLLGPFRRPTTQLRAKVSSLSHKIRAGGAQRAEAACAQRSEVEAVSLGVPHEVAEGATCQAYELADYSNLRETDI
Method: as §1, §2

hamster α1b-adrenoceptor = biological target: T4, hamster α1b-adrenoceptor (Mesocricetus auratus, UniProt P18841); experiment: [3H]Prazosin binding, hamster α1b-adrenoceptor in COS-7 cell membranes; conditions: COS-7 membranes, read-out: Affinity (Ki) α1b, animal cloned receptors
T4 construct: expressed in transfected cells; host or cells: COS-7 cells (transient), membranes
T4 sequence (P18841 1-515): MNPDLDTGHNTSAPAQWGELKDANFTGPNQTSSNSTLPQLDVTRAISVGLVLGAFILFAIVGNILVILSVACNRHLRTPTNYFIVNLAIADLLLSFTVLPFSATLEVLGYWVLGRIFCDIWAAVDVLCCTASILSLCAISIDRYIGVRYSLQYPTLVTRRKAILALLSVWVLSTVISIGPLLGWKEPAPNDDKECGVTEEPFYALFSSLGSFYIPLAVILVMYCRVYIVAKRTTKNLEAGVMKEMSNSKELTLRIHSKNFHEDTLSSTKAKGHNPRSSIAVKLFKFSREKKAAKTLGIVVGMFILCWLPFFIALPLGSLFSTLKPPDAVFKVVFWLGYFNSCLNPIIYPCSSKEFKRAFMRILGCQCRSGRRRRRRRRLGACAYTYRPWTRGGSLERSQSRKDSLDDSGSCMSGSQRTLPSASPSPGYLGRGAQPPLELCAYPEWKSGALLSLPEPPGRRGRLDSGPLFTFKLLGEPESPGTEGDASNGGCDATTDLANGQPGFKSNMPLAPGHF
Method: The incubation was stopped by addition of ice-cold Tris buffer and rapid filtration through 0.2% polyethyleneimine pretreated Whatman GF/B or Schleicher & Schuell GF52 filters.
as §2

With `COc1cc2nc(N3CCN(C(=O)c4ccco4)[C@@H]4CCCC[C@@H]43)nc(N)c2cc1OC` [Compound B, 4-Amino-6,7-dimethoxy-2-[(4aR,8aS)-4-(2-furoyl)-cis-octahydro-1-quinoxalinyl]-quinazoline hydrochloride] the DBP (anaesthetised dogs; 3 μg/kg intracavernous) was 110.7 ± 5.5 mmHg, the “DT (duration of tumescence)” value (anaesthetised dogs; 3 μg/kg intracavernous) was 2.5 ± 0.9 min and the ICP (anaesthetised dogs; 3 μg/kg intracavernous) was 36.7 ± 2.2 mmHg. For the same compound, the SBP (anaesthetised dogs; 3 μg/kg intracavernous) was 151.7 ± 7.3 mmHg, the “SBPICP (SBP at the time of maximal ICP value)” value (shortened to “SBPICP”) (anaesthetised dogs; 3 μg/kg intracavernous) was 153.3 ± 7.0 mmHg and the “increase of ICP in comparison with basal ICP values” (anaesthetised dogs; 3 μg/kg intracavernous) was 13.7 mmHg. The DBP (anaesthetised dogs; 30 μg/kg intracavernous) was 107.3 ± 4.2 mmHg, the “DT (duration of tumescence)” value (anaesthetised dogs; 30 μg/kg intracavernous) was 4.3 ± 2.0 min and the ICP (anaesthetised dogs; 30 μg/kg intracavernous) was 49.3 ± 14.2 mmHg. For the same compound, the SBP (anaesthetised dogs; 30 μg/kg intracavernous) was 150.0 ± 5.9 mmHg, the “SBPICP” value (anaesthetised dogs; 30 μg/kg intracavernous) was 151.0 ± 5.7 mmHg and the DBP (anaesthetised dogs; 100 μg/kg intracavernous) was 104.3 ± 4.2 mmHg. The “DT (duration of tumescence)” value (anaesthetised dogs; 100 μg/kg intracavernous) was 4.4 ± 1.6 min, the ICP (anaesthetised dogs; 100 μg/kg intracavernous) was 52.7 ± 13.0 mmHg and the SBP (anaesthetised dogs; 100 μg/kg intracavernous) was 146.0 ± 4.8 mmHg. For the same compound, the “SBPICP” value (anaesthetised dogs; 100 μg/kg intracavernous) was 147.3 ± 5.0 mmHg, the DBP (anaesthetised dogs; 300 μg/kg intracavernous) was 98.0 ± 6.9 mmHg and the “DT (duration of tumescence)” value (anaesthetised dogs; 300 μg/kg intracavernous) was 3.5 ± 1.1 min. The ICP (anaesthetised dogs; 300 μg/kg intracavernous) was 57.3 ± 11.4 mmHg, the SBP (anaesthetised dogs; 300 μg/kg intracavernous) was 139.0 ± 6.6 mmHg and the “SBPICP” value (anaesthetised dogs; 300 μg/kg intracavernous) was 147.3 ± 5.7 mmHg. For the same compound, the “increase of ICP in comparison with basal ICP values” (anaesthetised dogs; 1000 μg/kg (1000 μg given for prazosin, phentolamine) intracavernous) was 73.3 mmHg, the DBP (anaesthetised dogs; 1000 μg/kg intracavernous) was 81.0 ± 4.3 mmHg and the ICP (anaesthetised dogs; 1000 μg/kg intracavernous) was 93.3 ± 6.2 mmHg. For the same compound, the SBP (anaesthetised dogs; 1000 μg/kg intracavernous) was 121.7 ± 4.9 mmHg, the “SBPICP” value (anaesthetised dogs; 1000 μg/kg intracavernous) was 135.7 ± 6.8 mmHg and the “duration of action compared with reference compounds” value (anaesthetised dogs; Compound B at the highest dose tested) was “higher than that of the reference compounds tested”. The “hypotension on diastolic blood pressure (change)” value (anaesthetised dogs; highest dose 1000 μg/kg) was −31 mmHg, the “effect on ICP (in words)” value (anaesthetised dogs; intracavernous injection) was “increased ICP in a dose-dependent way” and the Ki (human α1b-adrenoceptor) was 0.17 nM. It also gave a Ki (human α1a-adrenoceptor) of 9.43 nM, a Ki (human α1d-adrenoceptor) of 2.63 nM and a Ki (hamster α1b-adrenoceptor) of 0.68 nM.
